For one test, the system named is A/H5N1/Duck_MN. Briefly: microbe, parasite or virus in culture. The test is classed as cell-based, influenza A.
Another test has as its system A/H5N1/Duck_PA. Briefly: microbe, parasite or virus in culture. The test is classed as cell-based, influenza A.
The subject of the next test is A/H5N1/Gull_PA. The test is described as follows: microbe, parasite or virus in culture. The test is classed as cell-based, influenza A.
The subject of a further test is influenza A/WSN/33. Briefly: Antiviral assay in MDCK cells, viral neuraminidase (MUNANA) readout, A/H1N1/WSN. The test is classed as cell-based. The note with it: read-out: A/H1N1/WSN Activity.
The subject of test [1] is influenza A/Brisbane/10/2007. Briefly: Antiviral assay in MDCK cells, viral neuraminidase (MUNANA) readout, A/H3N2/Brisbane. The test is classed as cell-based. The note with it: read-out: A/H3N2/Brisbane Activity.
In test [2] the test system is Influenza A/Solomon Islands/3/06. The test is described as follows: Antiviral assay in MDCK cells, viral neuraminidase (MUNANA) readout, A/H1N1/Solomon Islands. The settings on record: read-out: A/H1N1/Solomon Islands Activity. The test is classed as cell-based.
The mark [3] stands for this setting: MDCK cells, MOI 0.001, 48 hrs post infection, viral NA activity.
Setting [4] is: Influenza A virus, H3N2, MDCK, 48 h.
[5] abbreviates: Influenza A virus, H1N1, MDCK, 48 h.

Where two headings read alike, the source gives them in different places.

In the case of `COc1ccccc1-c1noc(C)c1C(=O)N1CCN(c2cc(NC(=O)c3ccc(SC)cc3)c([N+](=O)[O-])cc2Cl)CC1` [Example 11], the EC50 was below 1000 nM in the test with A/H5N1/Duck_MN (read-out: A/H5N1/Duck_MN), below 100 nM in the test with A/H5N1/Duck_PA (read-out: A/H5N1/Duck_PA) and below 100 nM in the test on A/H5N1/Gull_PA (read-out: A/H5N1/Gull_PA).
For the compound `COc1ccccc1-c1ncn(C)c1C(=O)N1CCN(c2cc(NC(=O)c3ccc(N(C)C)cc3)c([N+](=O)[O-])cc2Cl)CC1` [Example 81], the EC50 is below 100 nM with influenza A/WSN/33 (setting [3]), below 10000 nM in test [1] (setting [3]) and below 100 nM in test [2] (setting [3]).
As to `COc1ccccc1-c1noc(C)c1C(=O)N1CCN(c2cc(NC(=O)c3ccc(N(C)C)cc3)c(C#N)cc2Cl)CC1` [Example 65], the figures for the EC50 (with influenza A/WSN/33 (setting [3]); in test [1] (setting [3]); in test [2] (setting [3])) were below 100 nM, below 10000 nM and below 1000 nM, respectively.
Take `COc1ccccc1-c1noc(C)c1C(=O)N1CCN(c2cc(NC(=O)c3ccc(-c4nnc(C)o4)cc3)c([N+](=O)[O-])cc2Cl)CC1` [Example 38]: the EC50 with influenza A/WSN/33 (setting [3]) is below 1000 nM; in test [1] (setting [3]) it was below 100 nM; in test [2] (setting [3]), below 1000 nM.
As for `COc1ccccc1-c1noc(C)c1C(=O)N1CCN(c2cc(NC(=O)c3ccc(N(C)C)cc3)c(C)cc2Br)CC1` [Example 54], the EC50 in the test with influenza A/WSN/33 (setting [3]) is below 1000 nM; in test [1] (setting [3]), below 10000 nM; in test [2] (setting [3]), below 1000 nM.
As for `COc1ccccc1-c1noc(C)c1C(=O)N1CCN(c2nc(NC(=O)c3ccc(N(C)C)cc3)c(Cl)cc2Cl)CC1` [Example 52], the EC50 is below 1000 nM in the test on influenza A/WSN/33 (setting [3]), below 10000 nM in test [1] (setting [3]) and below 1000 nM in test [2] (setting [3]).
`COc1ccccc1-c1noc(C)c1C(=O)N1CCN(c2cc(NC(=O)c3nccs3)c(Cl)cc2Cl)CC1` [Example 56]: the EC50 in the test on influenza A/WSN/33 (setting [3]) is below 1000 nM; in test [1] (setting [3]), below 10000 nM; in test [2] (setting [3]), below 10000 nM.
Regarding `COc1ccccc1-c1ncn(C)c1C(=O)N1CCN(c2cc(NC(=O)c3ccc(N(C)C)cc3)c([N+](=O)[O-])cc2C#N)CC1` [Example 124], the EC50 (in the test on influenza A/WSN/33 (setting [3]); in test [1] (setting [3]); in test [2] (setting [3])) was below 100 nM throughout.
On to `Cc1onc(-c2cccc3ccccc23)c1C(=O)N1CCN(c2cc(NC(=O)c3nccs3)c([N+](=O)[O-])cc2Cl)CC1` [Example 78, N-(4-chloro-5-(4-(5-methyl-3-(naphthalen-1-yl)isoxazole-4-carbonyl)piperazin-1-yl)-2-nitrophenyl)thiazole-2-carboxamide], for which the EC50 in the test on A/H5N1/Duck_MN (Influenza A virus, H5N1, read-out: A/H5N1/Duck_MN) was below 1000 nM; in the test on A/H5N1/Duck_PA (Influenza A virus, H5N1, read-out: A/H5N1/Duck_PA), below 1000 nM; in the test with A/H5N1/Gull_PA (Influenza A virus, H5N1, read-out: A/H5N1/Gull_PA) it was below 100 nM.
Regarding `COc1ccc(C(=O)Nc2cc(N3CCN(C(=O)c4c(-c5ccccc5OC)noc4C)CC3)c(Cl)cc2[N+](=O)[O-])cc1` [Example 1, N-(4-chloro-5-(4-(3-(2-methoxyphenyl)-5-methylisoxazole-4-carbonyl)piperazin-1-yl)-2-nitrophenyl)-4-methoxybenzamide], the EC50 with influenza A/WSN/33 (Influenza A virus, MDCK, 48 h) is below 100 nM; in test [1] (setting [4]), below 1000 nM; in test [2] (setting [5]), below 100 nM.
Consider `COc1ccccc1-c1nnn(C)c1C(=O)N1CCN(c2cc(NC(=O)c3ccc(N4CCCS4(=O)=O)cc3)c([N+](=O)[O-])cc2Cl)CC1` [Example 92], for which the EC50 was below 100 nM in the test with influenza A/WSN/33 (setting [3]), below 1000 nM in test [1] (setting [3]) and below 100 nM in test [2] (setting [3]).
For the compound `COc1ccccc1-c1noc(C)c1C(=O)N1CCN(c2cc(NC(=O)c3ccc(N(C)C)cc3)c(Cl)cc2Cl)CC1` [Example 55], the figures for the EC50 (with influenza A/WSN/33 (setting [3]); in test [1] (setting [3]); in test [2] (setting [3])) were below 100 nM, below 1000 nM and below 100 nM, respectively.
Regarding `COc1ccc(C(=O)Nc2cc(N3CCN(C(=O)c4c(-c5ccccc5OC)noc4C)CC3)c(C#N)cc2Cl)cc1` [Example 66], the EC50 (with influenza A/WSN/33 (setting [3]); in test [1] (setting [3]); in test [2] (setting [3])) was below 10000 nM in each case.
`COc1ccccc1-c1noc(C)c1C(=O)N1CCN(c2cc(NC(=O)C3CCC3)c([N+](=O)[O-])cc2Cl)CC1` [Example 9]: the EC50 in the test with influenza A/WSN/33 (setting [3]) is below 100 nM; in test [1] (setting [3]) it was below 10000 nM; in test [2] (setting [3]), below 1000 nM.
Consider `COc1ccc(C(=O)Nc2nc(N3CCN(C(=O)c4c(-c5ccccc5OC)noc4C)CC3)c(Cl)cc2[N+](=O)[O-])cc1` [Example 43], for which the EC50 in the test with influenza A/WSN/33 (setting [3]) is below 1000 nM; in test [1] (setting [3]) it was below 100 nM; in test [2] (setting [3]), below 1000 nM.
In the case of `COc1ccccc1-c1noc(C)c1C(=O)N1CCN(c2cc(NC(=O)c3ccc(C)cc3)c([N+](=O)[O-])cc2Cl)CC1` [Example 24], the EC50 in the test with influenza A/WSN/33 (setting [3]) is below 100 nM; in test [1] (setting [3]) it was below 10000 nM; in test [2] (setting [3]), below 100 nM.
For the compound `COc1ccc(C(=O)Nc2cc(N3CCN(C(=O)c4c(-c5ccccc5OC)ncn4C)CC3)c(Cl)cc2[N+](=O)[O-])cc1` [Example 102], the EC50 is below 100 nM in the test with influenza A/WSN/33 (setting [3]), below 10000 nM in test [1] (setting [3]) and below 1000 nM in test [2] (setting [3]).
On to `COc1ccccc1-c1nnn(C)c1C(=O)N1CCN(c2cc(NC(=O)c3ccc(N4CCCC4=O)cc3)c([N+](=O)[O-])cc2C#N)CC1` [Example 122, N-(4-cyano-5-(4-(4-(2-methoxyphenyl)-1-methyl-1H-1,2,3-triazole-5-carbonyl)piperazin-1-yl)-2-nitrophenyl)-4-(2-oxopyrrolidin-1-yl)benzamide], for which the EC50 was below 1000 nM in the test with influenza A/WSN/33 (Influenza A virus, MDCK, 48 h); below 1000 nM in test [1] (setting [4]); below 1000 nM in test [2] (setting [5]).
Turning to `COc1ccccc1-n1ncc(C)c1C(=O)N1CCN(c2cc(NC(=O)c3ccc(N(C)C)cc3)c([N+](=O)[O-])cc2Cl)CC1` [Example 73], the EC50 was below 1000 nM in the test on influenza A/WSN/33 (setting [3]), below 1000 nM in test [1] (setting [3]) and below 100 nM in test [2] (setting [3]).
For the compound `COc1ccccc1-c1noc(C)c1C(=O)N1CCN(c2cc(NC(=O)c3ccc(-n4cncn4)cc3)c([N+](=O)[O-])cc2Cl)CC1` [Example 37], the EC50 was below 100 nM in the test on influenza A/WSN/33 (setting [3]), below 1000 nM in test [1] (setting [3]) and below 100 nM in test [2] (setting [3]).
`COc1ccccc1-c1nnn(C)c1C(=O)N1CCN(c2cc(NC(=O)c3ccc(N4CCCS4(=O)=O)cc3)c(Br)cc2Cl)CC1` [Example 120, N-(4-chloro-5-(4-(4-(2-methoxyphenyl)-1-methyl-1H-1,2,3-triazole-5-carbonyl)piperazin-1-yl)-2-bromophenyl)-4-(1,1-dioxidoisothiazolidin-2-yl)benzamide]: the EC50 was below 1000 nM in the test with influenza A/WSN/33 (Influenza A virus, MDCK, 48 h); below 10000 nM in test [1] (setting [4]); below 1000 nM in test [2] (setting [5]).
Regarding `COc1ccccc1-c1noc(C)c1C(=O)N1CCN(c2cc(NC(=O)c3ccc(N(C)C)cc3)c([N+](=O)[O-])cc2C#N)CC1` [Example 68], the EC50 in the test with influenza A/WSN/33 (setting [3]) is below 1000 nM; in test [1] (setting [3]) it was below 100 nM; in test [2] (setting [3]), below 100 nM.
In the case of `Cc1c[nH]c(-c2ccccc2Cl)c1C(=O)N1CCN(c2cc(NC(=O)c3ccc(N(C)C)cc3)c([N+](=O)[O-])cc2Cl)CC1` [Example 72], the EC50 in the test on influenza A/WSN/33 (setting [3]) is below 100 nM; in test [1] (setting [3]), below 1000 nM; in test [2] (setting [3]), below 100 nM.
For the compound `C=Cc1cc(Cl)c(N2CCN(C(=O)c3c(-c4ccccc4OC)noc3C)CC2)cc1NC(=O)c1ccc(N(C)C)cc1` [Example 125, N-(4-chloro-5-(4-(3-(2-methoxyphenyl)-5-methylisoxazole-4-carbonyl)piperazin-1-yl)-2-vinylphenyl)-4-(dimethylamino)benzamide], the EC50 in the test with influenza A/WSN/33 (Influenza A virus, MDCK, 48 h) is below 1000 nM; in test [1] (setting [4]), below 10000 nM; in test [2] (setting [5]), below 1000 nM.
With `COc1ccccc1-c1nnn(C)c1C(=O)N1CCN(c2cc(NC(=O)c3ccc(N4CCCC4=O)cc3)c([N+](=O)[O-])cc2Cl)CC1` [Example 84, N-(4-chloro-5-(4-(4-(2-methoxyphenyl)-1-methyl-1H-1,2,3-triazole-5-carbonyl)piperazin-1-yl)-2-nitrophenyl)-4-(2-oxopyrrolidin-1-yl)benzamide], the EC50 is below 100 nM in the test on influenza A/WSN/33 (Influenza A virus, MDCK, 48 h); below 100 nM in test [1] (setting [4]); below 100 nM in test [2] (setting [5]).
For the compound `COc1ccccc1-c1noc(CF)c1C(=O)N1CCN(c2cc(NC(=O)c3ccc(N(C)C)cc3)c(Cl)cc2Cl)CC1` [Example 69, N-(2,4-dichloro-5-(4-(5-(fluoromethyl)-3-(2-methoxyphenyl)isoxazole-4-carbonyl)piperazin-1-yl)phenyl)-4-(dimethylamino)benzamide], the EC50 in the test with influenza A/WSN/33 (Influenza A virus, MDCK, 48 h) was below 1000 nM; in test [1] (setting [4]) it was below 10000 nM; in test [2] (setting [5]) it was below 1000 nM.
With `COc1ccccc1-c1noc(C)c1C(=O)N1CCN(c2cc(NC(=O)c3ccc(N4CCCC4=O)cc3)c([N+](=O)[O-])cc2Cl)CC1` [Example 47, N-(4-chloro-5-(4-(3-(2-methoxyphenyl)-5-methylisoxazole-4-carbonyl)piperazin-1-yl)-2-nitrophenyl)-4-(2-oxopyrrolidin-1-yl)benzamide], the EC50 in the test with influenza A/WSN/33 (Influenza A virus, MDCK, 48 h) is below 100 nM; in test [1] (setting [4]), below 1000 nM; in test [2] (setting [5]), below 100 nM.
Take `COc1ccccc1-c1noc(C)c1C(=O)N1CCN(c2cc(NC(=O)c3ccc(N(C)S(C)(=O)=O)cc3)c([N+](=O)[O-])cc2Cl)CC1` [Example 35]: the results for the EC50 (with influenza A/WSN/33 (setting [3]); in test [1] (setting [3]); in test [2] (setting [3])) were below 100 nM, below 1000 nM and below 100 nM, respectively.
As to `COc1ccccc1-c1n[nH]c(C)c1C(=O)N1CCN(c2cc(NC(=O)c3ccc(N(C)C)cc3)c([N+](=O)[O-])cc2Cl)CC1` [Example 70, N-(4-chloro-5-(4-(3-(2-methoxyphenyl)-5-methyl-1H-pyrazole-4-carbonyl)piperazin-1-yl)-2-nitrophenyl)-4-(dimethylamino)benzamide], the EC50 in the test with influenza A/WSN/33 (Influenza A virus, MDCK, 48 h) was below 100 nM; in test [1] (setting [4]) it was below 10000 nM; in test [2] (setting [5]), below 1000 nM.

Values taken from patent US8362004B2, “Piperazine analogs as broad-spectrum influenza antivirals” (priority 2010, dated 2013).
